These are literature values, as cited in patent publication US20100135984A1, “Anti-inflammatory compositions and methods” (Searete LLC, a limited liability corporation of the State …, priority 2008, published 2010).

For series [1] the following is noted: mice.
The conditions of series [2]: single agent, infused at 400 mg over one hour.
In the next series the target is Fyn (Homo sapiens, UniProt P06241). Particulars: at nanomolar concentrations.
Another series has as its system proteasome. Particulars: cultured breast cancer cells; copper-bound.

Chain of Fyn (P06241 whole entry, species assumed): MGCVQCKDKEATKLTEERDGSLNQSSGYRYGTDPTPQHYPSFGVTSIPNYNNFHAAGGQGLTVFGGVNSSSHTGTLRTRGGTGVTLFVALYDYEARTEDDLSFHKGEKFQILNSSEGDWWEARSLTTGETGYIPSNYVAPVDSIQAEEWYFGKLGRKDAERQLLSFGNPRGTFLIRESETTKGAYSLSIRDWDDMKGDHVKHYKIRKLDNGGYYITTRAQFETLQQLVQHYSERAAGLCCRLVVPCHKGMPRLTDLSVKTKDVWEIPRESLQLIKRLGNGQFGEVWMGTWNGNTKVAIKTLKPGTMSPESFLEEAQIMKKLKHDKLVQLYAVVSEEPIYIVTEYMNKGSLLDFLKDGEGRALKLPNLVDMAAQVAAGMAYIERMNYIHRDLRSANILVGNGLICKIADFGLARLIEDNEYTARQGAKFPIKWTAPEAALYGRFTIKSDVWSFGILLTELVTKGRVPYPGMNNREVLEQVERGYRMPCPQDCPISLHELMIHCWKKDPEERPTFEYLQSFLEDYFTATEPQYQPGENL

Turning to `CCN(CC)CCCC(C)Nc1ccnc2cc(Cl)ccc12` (stereo not drawn) [Chloroquine], the “inhibition of CpG-induced Src family kinase activation or its dependent cellular responses” value in the series on Src family kinase is listed as “does not inhibit”.
Regarding `Cl.Cl.Nc1ccccc1Oc1ccc2c(N)nsc2c1` [Example M62812, 3-amino-6-(2-aminophenoxy)-1,2-benzisothiazole dihydrochloride], in series [1], the “prevention of lethal septic shock” value was “prevents lethal septic shock”.
For the compound `CCN(CC)CCCC(C)Nc1ccnc2cc(Cl)ccc12.O=P(O)(O)O.O=P(O)(O)O` (stereo not drawn) [chloroquine phosphate, 7-chloro-4-[[4-(diethylamino)-1-methylbutyl]amino]quinoline phosphate (1:2)], in series [2], the tolerability of infusion result is listed as “without complication”.
Turning to `Cc1nc(Nc2ncc(C(=O)Nc3c(C)cccc3Cl)s2)cc(N2CCN(CCO)CC2)n1.O` [dasatinib, N-(2-chloro-6-methylphenyl)-2-[[6-[4-(2-hydroxyethyl)-1-piperazinyl]-2-methyl-4-pyrimidinyl]amino]-5-thiazolecarboxamide, monohydrate], on Fyn, the “inhibition of Fyn” value is recorded as “inhibits”.
For `CCN(CC)C(=S)SSC(=S)N(CC)CC` [disulfiram, 1-(diethylthiocarbamoyldisulfanyl)-N,N-diethyl-methanethioamide], in the series on proteasome, the proteasomal activity entry is “inhibits proteasomal activity”. For the same compound, the “inhibition of aldehyde dehydrogenase” value with aldehyde dehydrogenase was “inhibits aldehyde dehydrogenase without toxicity”.
